Laboratory results published in PubChem BioAssay AID686920 (Broad Institute, 2013).
Values joined by “and” are separate entries in the source; they are usually repeats but may differ in a detail not shown here. Equal values may be shown once. Active and inactive are the calls of the source.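 How the source made its calls: active means fitted curve reaching 35% inhibition at a dose no higher than twice the top valid tested dose; inconclusive means flat fit with 30 to 70% inhibition, or a poor fit; inactive means the rest, including activity in the opposite direction.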

Test system: A673 NR0B1-luciferase reporter, viability-normalised luminescence
Assay: NR0B1 reporter signal reduction in A673 cells – cell-based, luciferase luminescence, cherry-pick, EWS/Fli inhibitor project, dose response (AID 686920)
Conditions: not given

Point of comparison: `OCCN1CCN(C(=S)c2ccc(-c3ccccc3)cc2)CC1`, AC35 1.94 µM. Against it:
- C[C@H](CO)N1C[C@H](C)[C@H](CN(C)Cc2ccc(Oc3ccccc3)cc2)Oc2ccc(NC(=O)Cn3cnnn3)cc2CC1=O — 17-fold higher, 33.2 µM
- Cc1ccccc1S(=O)(=O)N1CC[C@@H]2[C@@H](CO)Nc3ccc(-c4ccc(C#N)cc4)cc3[C@@H]21 — 2.8-fold higher, 5.42 µM
- COC(=O)Cc1ccc(NC(=O)c2ccccc2Cl)cc1 — within 1.5-fold, 2.6 µM
- COc1ccc(/C=C2\SC(=O)N(CCCC(=O)Nc3cc(Cl)ccc3C(=O)O)C2=O)cc1 — 11-fold lower, 0.169 µM
- O=C(C[C@@H]1C[C@H]2c3cc(NC(=O)CC4CC4)ccc3O[C@H]2[C@H](CO)O1)NCc1ccccc1F — 21-fold higher, 40.3 µM
- Cc1ccc(C(C(=O)NCc2ccco2)N(C(=O)CNC(=O)c2cccs2)c2c(C)cc(C)cc2C)cc1 (stereo not given) — 22-fold higher, 42 µM
- COc1ccc(NC(=O)N(C)[C@H]2C[C@H]3c4[nH]c5ccccc5c4CCN3C(=O)[C@H]2CO)cc1 — 6.2-fold higher, 12 µM
- C[C@@H]1CN([C@H](C)CO)C(=O)Cc2cc(NC(=O)CCCCCC(=O)Nc3ccccc3N)ccc2O[C@@H]1CN(C)CC1CCCCC1 — 4-fold higher, 7.74 µM
- Nc1cc2c(cc1Br)[nH]c(=O)c1ccccc12 — 22-fold higher, 43.3 µM
- C[C@H](CO)N1C[C@H](C)[C@H](CN(C)CC2CCCCC2)Oc2ccc(NC(=O)CCCCCC(=O)Nc3ccccc3N)cc2CC1=O — 2.6-fold higher, 4.96 µM
- C[C@@H]1CN([C@@H](C)CO)S(=O)(=O)c2ccc(C#Cc3ccncc3)cc2O[C@H]1CN(C)C(=O)C1CCOCC1 — 26-fold higher, 49.8 µM
- C[C@H](CO)N1C[C@H](C)[C@H](CN(C)Cc2ccc(C(F)(F)F)cc2)Oc2ccc(NC(=O)CCCCCC(=O)Nc3ccccc3N)cc2CC1=O — 3.1-fold higher, 6.04 µM
- CC1=NN(c2ccc(C)cc2)C(=O)/C1=C\C=C\c1ccccc1 — 5.3-fold higher, 10.2 µM
- C(=N\Nc1ccc2ccccc2n1)/c1ccc2c(c1)OCO2 — 3-fold higher, 5.76 µM
- COc1ccc(N=C(NN)c2ccc3ccccc3n2)cc1 — 11-fold higher, 21.8 µM
- O=c1cc(-c2ccccc2)oc2ccc3ccccc3c12 — within 1.5-fold, 1.43 µM
- S=c1[nH]nc(-c2cc(-c3ccccc3)n[nH]2)n1/N=C/C(Br)=C/c1ccccc1 — 5.4-fold higher, 10.4 µM
- COc1ccc(OC)c(Cc2cnc3nc(N)nc(N)c3c2C)c1 — 21-fold lower, 0.0922 µM
- Cc1c(Cl)cnc(NC(=O)COC(=O)c2ccc3ncsc3c2)c1Cl — 3.7-fold higher, 7.23 µM
- Cc1ccc(/C=N/Nc2ccc3ccccc3n2)o1 — 2.2-fold higher, 4.21 µM
- c1ccc(Nc2nnc(-c3ccc4c(c3)OCO4)o2)cc1 — 1.6-fold higher, 3.06 µM
- O=C(C[C@H]1C[C@H]2c3cc(NS(=O)(=O)c4ccc(F)cc4)ccc3O[C@H]2[C@H](CO)O1)NCc1ccc(Oc2ccccc2)cc1 — 3.2-fold higher, 6.22 µM
- CN(C)c1ccc(/C=N/Nc2nc3ccccc3o2)cc1 — 2.8-fold higher, 5.35 µM
- C[C@@H]1O[C@@H](O[C@@H]2C=C3CCC4C(CC[C@]5(C)[C@@H](c6ccc(=O)oc6)CC[C@]45O)[C@@]3(C)CC2)[C@H](O)[C@H](O)[C@H]1O (stereo not given in full) — lower, < 0.09 µM
- Nc1nc2cc3c(cc2cc1C(=O)NCCc1c[nH]c2ccccc12)OCO3 — 2.2-fold higher, 4.31 µM
- N#C[C@@H]1[C@H](c2ccc(C#Cc3cccc(F)c3)cc2)[C@@H](CO)N1C(=O)C1CCCC1 — 2.3-fold higher, 4.38 µM
- COc1cccc(O)c1CN1CCC(C(=O)Nc2ccc(-c3cccc(C)c3)cc2)CC1 — 15-fold higher, 29.1 µM
- C[C@@H]1CN([C@H](C)CO)C(=O)c2cc(C#CCc3ccccc3)cnc2O[C@@H]1CN(C)Cc1cccc(F)c1 — 24-fold higher, 46.1 µM
- Cc1ccc(C(=O)O/N=C(\N)c2ccccn2)cc1 — 5.1-fold higher, 9.92 µM
- O=C(CN1C(=O)C(=O)c2ccccc21)c1ccc(Cl)cc1 — 18-fold higher, 34.2 µM
- CC(C)(C)[S@](=O)N1Cc2cc(C(=O)NCC(F)(F)F)nc(-c3cccc(-c4cccc(F)c4)c3)c2[C@@H]1CCO — 9.7-fold higher, 18.9 µM
- O=C1NC(=O)N(CCc2ccc(F)cc2)C(=O)/C1=C/C=C/c1ccccc1 — within 1.5-fold, 2.66 µM
- COc1ccc(/C=C2\SC(=S)N(CCCC(=O)NC3CCCC3)C2=O)cc1OC — 20-fold higher, 38.5 µM
- O=S(=O)(c1ccc(F)cc1)N1C[C@H]2[C@@H](c3ccccc31)[C@H](CO)N2Cc1ccccc1Cl — 17-fold higher, 33.7 µM
- C[C@@H]1CCCCO[C@H](CN(C)Cc2ccc(C(=O)Nc3ccccc3N)cc2)[C@@H](C)CN([C@@H](C)CO)C(=O)c2cc(NS(=O)(=O)c3ccc(Cl)cc3)ccc2O1 — 3.2-fold higher, 6.13 µM
- Cc1csc(NC(=O)CCc2c(C)nc3cc(-c4ccc(Cl)cc4)nn3c2C)n1 — 6.8-fold lower, 0.284 µM
- Nc1nc(N)c2cc(Sc3ccc4ccccc4c3)ccc2n1 — within 1.5-fold, 2.1 µM
- CCCCCCCCCCCCCCCCCCNc1ccn(C2OC(COP(=O)(O)OCC3OC(n4cc(F)c(=O)[nH]c4=O)CC3O)C(O)C2O)c(=O)n1 (stereo not given) — 9.7-fold higher, 18.8 µM
- COC1C(O)C(C)OC(OC2C(Oc3cccc4c(O)c5c(=O)oc6ccc(C)c7c(=O)oc(c34)c5c67)OC(C)C(O)C2O)C1O (stereo not given) — 2.3-fold higher, 4.49 µM
- O=C(O)c1ccc(N/N=C/c2cc(Br)cs2)cc1 — 3.7-fold higher, 7.22 µM
- O=C(Nc1ccc2c(c1)OCO2)N1C[C@@H]2N[C@H](C1)C2c1ccc(C=Cc2ccccc2)cc1 (stereo not given in full) — 9.8-fold higher, 19 µM
- C[C@@H]1CCCCO[C@H](CN(C)Cc2ccc(C(=O)Nc3ccccc3N)cc2)[C@@H](C)CN([C@H](C)CO)C(=O)c2cc(NS(=O)(=O)c3ccc(Cl)cc3)ccc2O1 — 2.6-fold higher, 5.04 µM
- CC(C)(C)c1ccc(Oc2ccc(NC(=O)C3CC=CCC3C(=O)O)cc2)cc1 (stereo not given) — 21-fold higher, 40.5 µM
- COc1ccc(NC(=O)N2CCCCN3[C@H](CO)[C@H](c4ccc(C#CCC(C)C)cc4)[C@H]3C2)cc1 — 5.1-fold higher, 9.98 µM
- CCCCCCCN(c1ccccc1)[C@@H]1C[C@H]2CCCC(=O)N3CC[C@@H](C1)[C@@H]23 — 6.1-fold higher, 11.8 µM
- O=C(O)c1ccc(N/N=C/c2c[nH]c3ccccc23)cc1 — 4.5-fold higher, 8.82 µM
- COc1ccc(C=NNc2nc3ccccc3s2)cc1 — 3.3-fold higher, 6.43 µM
- Oc1c(Cl)cc(Cl)c(Cl)c1Cc1c(O)c(Cl)cc(Cl)c1Cl — 18-fold higher, 35.3 µM
- C[C@@H]1CN([C@@H](C)CO)S(=O)(=O)c2ccc(C#CC(C)(C)O)cc2O[C@H]1CN(C)Cc1ccc(-c2ccccc2)cc1 — within 1.5-fold, 2.8 µM
- Cc1ccc(S(=O)(=O)N(C)C[C@@H]2Oc3ccc(NC(=O)CCCCCC(=O)Nc4ccccc4N)cc3CC(=O)N([C@@H](C)CO)C[C@@H]2C)cc1 — 5.7-fold higher, 11 µM
- COc1ccc(NC(=O)c2cc3ccccc3oc2=O)cc1 — 1.5-fold higher, 2.99 µM
- O=C(c1nnsc1S(=O)c1ccc(Cl)cc1)N1CCOCC1 (stereo not given) — 7.3-fold higher, 14.1 µM
- O=C(/C=C/c1cc(Br)ccc1O)c1ccco1 — 5.5-fold higher, 10.7 µM
- C[C@@H]1CN([C@@H](C)CO)S(=O)(=O)c2ccc(C#CCN(C)C)cc2O[C@@H]1CN(C)Cc1ccncc1 — 31-fold higher, 60.2 µM
- O=C(CCc1ccccc1)NC(c1cccs1)c1cc(Cl)c2cccnc2c1O (stereo not given) — 2.8-fold higher, 5.42 µM
- O=C(C1CC1)N1C[C@@H]2N[C@H](C1)C2c1ccc(/C=C/c2ccccc2)cc1 (stereo not given in full) — 13-fold higher, 26.1 µM
- Cc1nn(Cc2ccccc2Cl)c2sc(C(=O)Nc3ccccc3N3CCOCC3)cc12 — 5.3-fold higher, 10.3 µM
- O=C(N/N=C/c1cnc(N2CCCCC2)s1)c1ccc(C(F)(F)F)cc1 — 29-fold higher, 56.8 µM
- OC[C@H]1[C@@H](c2ccc(C#CC3CCCC3)cc2)[C@@H]2CN(CCC(F)(F)F)CCCCN12 — 4.8-fold higher, 9.24 µM
- C=C1C(=O)C=C[C@]2(C)C[C@@H]3OC(=O)[C@](C)(O)[C@H]3C[C@@H]12 — 5.5-fold higher, 10.7 µM
- COc1ccc(C=C2CCc3ccccc3C2=O)cc1 — 5.4-fold higher, 10.4 µM
- CC[C@@H]1C[C@H]2CC[C@H](O2)[C@H](C)C(=O)O[C@@H](C)C[C@@H]2CC[C@@H](O2)[C@@H](C)C(=O)O[C@H](C)C[C@H]2CC[C@H](O2)[C@H](C)C(=O)O[C@@H](C)C[C@@H]2CC[C@@H](O2)[C@@H](C)C(=O)O1 — 20-fold lower, 0.0992 µM
- COc1ccc(OC)c(-c2nnc3n2N=C(c2ccc(OC)c(OC4CCCC4)c2)CS3)c1 — 6.5-fold higher, 12.6 µM

In the case of `C[C@H](O)C#Cc1ccc2c(c1)O[C@@H](CN(C)Cc1ccc(-c3ccccc3)cc1)[C@H](C)CN([C@@H](C)CO)S2(=O)=O`, the AC35 is reported as 6.15 µM and 8.6 µM.

Test system: not listed separately
Assay: as above
Conditions: A673 NR0B1-luciferase reporter, viability-normalised luminescence; at 7.5 µM (top of the series)

For `O=C(CCCCl)Nc1nc(-c2ccc3c(c2)OCCO3)cs1`, the activity change, negative = inhibition was 80% (inactive).

Same assay, conditions: A673 NR0B1-luciferase reporter, viability-normalised luminescence; at 21 µM (top of the series)

With `COC(=O)C[C@@H]1CC[C@@H]2[C@@H](COc3ccc(NC(=O)Nc4cccc(F)c4)cc3C(=O)N2C)O1` the activity change, negative = inhibition was -4.28% (inactive).
In the case of `O=C1CCCC2=C1C(c1ccccn1)Nc1ccc(C(=O)c3ccccc3)cc1N2` (stereo not given), the activity change, negative = inhibition is reported as 8.98% (inactive).
With `COc1cc(C(c2c(C)[nH][nH]c2=O)c2c(C)[nH][nH]c2=O)ccc1OC(C)C` the activity change, negative = inhibition was 28.1% (inactive).

Same assay, conditions: A673 NR0B1-luciferase reporter, viability-normalised luminescence; at 68 µM (top of the series)

For `Cc1cc(C(=O)NNC(=O)c2ccc(S(=O)(=O)N(C)C)cc2)c(C)o1`, the activity change, negative = inhibition was 5.18% (inactive).
For `Nc1ncn([C@@H]2O[C@H](CO)[C@@H](O)[C@H]2O)c(=O)n1`, the activity change, negative = inhibition was -32.1% (inactive).
In the case of `COC(=O)C[C@@H]1CC[C@@H]2[C@H](COc3ccc(NC(=O)Nc4cccc(C#N)c4)cc3C(=O)N2C)O1`, the activity change, negative = inhibition is reported as -24.9% (inactive).
In the case of `Oc1c(Cl)cc(Cl)c2cccnc12`, the activity change, negative = inhibition is reported as -29.3% (inactive).
In the case of `CN(C)[C@@H]1CCC[C@@H]1OC(=O)C(c1ccccc1)c1ccccc1`, the activity change, negative = inhibition is reported as 12.1% (inactive).
With `COC(=O)C[C@@H]1CC[C@@H]2[C@@H](COc3ccc(NC(=O)Nc4cccc(Cl)c4)cc3C(=O)N2C)O1` the activity change, negative = inhibition was -7.4% (inactive).
In the case of `N/C(Cc1nc(-c2ccc(F)cc2)cs1)=N\O`, the activity change, negative = inhibition is reported as 42.1% (inactive).
For `COc1ccc(NC(=S)N=Nc2c(O)[nH]c3ccccc23)cc1`, the activity change, negative = inhibition was 29.4% (inactive).
For `C/C=C/c1ccc([C@H]2[C@@H](CO)N3C(=O)CN(S(=O)(=O)c4cccc(F)c4)C[C@@H]23)cc1`, the activity change, negative = inhibition was -7.12% (inactive).
In the case of `COC(=O)C[C@H]1C=C[C@@H](NC(=O)Nc2ccc(C(F)(F)F)cc2)[C@H](CO)O1`, the activity change, negative = inhibition is reported as 8.17% (inactive).
In the case of `CCCc1nc2ccc(NC(=O)c3cccs3)cc2c(=O)n1Cc1ccccc1Cl`, the activity change, negative = inhibition is reported as 5.64% (inactive).
For `CN(C(=O)COC(=O)c1cc(-c2ccccc2Cl)nc2ccccc12)C1CCS(=O)(=O)C1` (stereo not given), the activity change, negative = inhibition was 9.88% (inactive).
For `CCCn1nnc(NC(=S)NC(=O)C(C)(C)C)n1`, the activity change, negative = inhibition was 37.8% (inactive).
In the case of `COc1ccc(C/C(N)=N/OC(C)=O)cc1OC`, the activity change, negative = inhibition is reported as 13.8% (inactive).
For `CCc1c(C(=O)NN2C(=O)C3CCCCC3C2=O)csc1C` (stereo not given), the activity change, negative = inhibition was 27.7% (inactive).
With `COC(=O)[C@H]1[C@H](CO)[C@H]2Cn3c(ccc(-c4ccccc4F)c3=O)[C@@H]1N2CC1CCCC1` the activity change, negative = inhibition was -18% (inactive).
